Test results: ChEMBL document CHEMBL1201862, “PubChem BioAssay data set” (2004)
The source made the active and inactive calls.

Key:
[1] = biological target: Cytochrome P450 2C19 (Homo sapiens, UniProt P33261); test: Cytochrome panel assay with activity outcomes. Panel member name: p450-cyp2c19 Compounds with AC50 equal or less than 10 uM are considered active; assay type: functional
[2] = biological target: Cytochrome P450 2C9 (Homo sapiens, UniProt P11712)
[3] = biological target: T1, Replicative DNA helicase DnaB (Mycobacterium tuberculosis, UniProt P9WMR3); test: DnaB intein splicing inhibitors, dose response, biochemical, cell-free fluorescence (AID 449749); assay type: functional
T1 sequence (P9WMR3 whole entry): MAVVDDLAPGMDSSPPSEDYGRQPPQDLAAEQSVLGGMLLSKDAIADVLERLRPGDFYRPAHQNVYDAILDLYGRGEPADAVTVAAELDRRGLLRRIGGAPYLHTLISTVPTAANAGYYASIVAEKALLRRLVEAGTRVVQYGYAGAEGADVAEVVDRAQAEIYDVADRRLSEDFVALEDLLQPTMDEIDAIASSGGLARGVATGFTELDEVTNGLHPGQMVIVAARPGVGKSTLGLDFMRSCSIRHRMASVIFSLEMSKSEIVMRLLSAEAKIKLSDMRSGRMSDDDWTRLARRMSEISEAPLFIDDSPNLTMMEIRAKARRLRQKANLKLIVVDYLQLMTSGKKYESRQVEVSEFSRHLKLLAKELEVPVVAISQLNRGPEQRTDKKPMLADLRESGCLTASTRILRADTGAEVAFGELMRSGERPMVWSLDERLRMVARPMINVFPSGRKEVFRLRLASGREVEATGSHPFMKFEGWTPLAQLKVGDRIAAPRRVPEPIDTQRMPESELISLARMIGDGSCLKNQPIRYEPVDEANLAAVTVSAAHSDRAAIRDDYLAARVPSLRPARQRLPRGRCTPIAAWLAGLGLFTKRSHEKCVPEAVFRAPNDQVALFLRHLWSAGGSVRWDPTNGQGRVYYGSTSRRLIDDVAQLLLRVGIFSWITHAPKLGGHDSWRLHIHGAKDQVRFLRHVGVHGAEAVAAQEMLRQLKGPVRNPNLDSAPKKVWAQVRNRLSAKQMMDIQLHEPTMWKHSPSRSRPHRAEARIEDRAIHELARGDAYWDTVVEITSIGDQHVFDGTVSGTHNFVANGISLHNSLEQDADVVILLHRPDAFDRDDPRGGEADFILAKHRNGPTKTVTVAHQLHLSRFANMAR

[4] = biological target: T2, Protein RecA (Mycobacterium tuberculosis, UniProt P9WHJ3); test: Fluorescence Cell-Free Homogeneous Dose Retest to Identify Inhibitors of RecA-Intein Splicing Activity. [Related pubchem assays (depositor defined):AID2097, AID2223, AID489010, AID492950]; assay type: functional
T2 sequence (P9WHJ3 whole entry): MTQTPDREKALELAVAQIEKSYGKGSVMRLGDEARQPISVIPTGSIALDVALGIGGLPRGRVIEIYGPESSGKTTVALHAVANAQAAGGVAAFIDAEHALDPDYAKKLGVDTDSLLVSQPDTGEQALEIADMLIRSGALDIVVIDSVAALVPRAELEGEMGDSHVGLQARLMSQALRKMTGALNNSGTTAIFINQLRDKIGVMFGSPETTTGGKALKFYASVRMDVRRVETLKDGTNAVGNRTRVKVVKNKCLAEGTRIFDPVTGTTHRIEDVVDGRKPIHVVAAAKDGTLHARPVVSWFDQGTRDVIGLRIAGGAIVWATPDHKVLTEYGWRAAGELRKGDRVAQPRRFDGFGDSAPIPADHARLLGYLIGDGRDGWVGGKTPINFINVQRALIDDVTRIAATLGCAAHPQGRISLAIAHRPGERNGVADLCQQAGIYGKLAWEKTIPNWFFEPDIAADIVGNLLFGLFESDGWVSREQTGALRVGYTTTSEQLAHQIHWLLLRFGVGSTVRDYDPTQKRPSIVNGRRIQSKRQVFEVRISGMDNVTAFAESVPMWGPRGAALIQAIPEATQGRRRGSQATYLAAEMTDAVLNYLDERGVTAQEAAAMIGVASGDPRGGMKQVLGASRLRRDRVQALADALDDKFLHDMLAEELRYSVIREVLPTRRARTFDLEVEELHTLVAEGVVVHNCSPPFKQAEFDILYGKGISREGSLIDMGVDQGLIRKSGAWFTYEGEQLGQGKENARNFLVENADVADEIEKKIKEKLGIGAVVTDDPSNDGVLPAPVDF

[5] = HEp-2 cell cytotoxicity, dose response, cytotoxicity control for RSV inhibitor project, HTS (AID 2410); assay type: functional; conditions: human respiratory syncytial virus
[6] = biological target: Cytochrome P450 2D6 (Homo sapiens, UniProt P10635);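 further: CYP2D6 member of a cytochrome P450 panel assay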
Sequence of Cytochrome P450 2D6 (P10635 whole entry): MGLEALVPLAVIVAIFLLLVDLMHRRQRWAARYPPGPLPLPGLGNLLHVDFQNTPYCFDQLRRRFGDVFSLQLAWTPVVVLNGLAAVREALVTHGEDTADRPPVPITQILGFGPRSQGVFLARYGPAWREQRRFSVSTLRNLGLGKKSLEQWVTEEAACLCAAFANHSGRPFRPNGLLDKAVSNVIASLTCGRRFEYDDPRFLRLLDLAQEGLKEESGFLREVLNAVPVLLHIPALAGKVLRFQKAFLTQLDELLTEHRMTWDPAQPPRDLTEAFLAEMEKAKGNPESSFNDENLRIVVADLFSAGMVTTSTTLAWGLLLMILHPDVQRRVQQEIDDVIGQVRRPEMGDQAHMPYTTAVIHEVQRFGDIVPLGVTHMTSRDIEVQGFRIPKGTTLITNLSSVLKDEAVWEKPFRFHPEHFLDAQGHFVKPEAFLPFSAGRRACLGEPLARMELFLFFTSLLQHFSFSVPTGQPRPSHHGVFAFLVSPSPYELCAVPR

[7] = inhibitors of intracellular T. cruzi replication, confirmation, NIH3T3 host cells, beta-gal luminescence (AID 2044); assay type: functional, cell-based;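 further: intracellular parasites grown in NIH/3T3 mouse fibroblasts as host cells; luminescent beta-galactosidase reporter signal from transgenic T. cruzi replicating inside host cells; inhibitors lower the luminescence signal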
[8] = cytotoxicity toward NIH3T3 fibroblasts, dose response, counter-screen, cell-based, ATP luminescence, mouse fibroblasts (AID 2010); assay type: functional;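 further: cells exposed to compound for about 90 hours before reading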
[9] = biological target: T3, Corticotropin-releasing factor receptor 2/Corticotropin-releasing factor-binding protein (Homo sapiens, UniProt P24387+Q13324); test: Dose Response confirmation of uHTS hits for small molecule antagonists of the CRF-binding protein and CRF-R2 receptor complex.; assay type: functional; conditions: read-out: IC50_Mean
T3 sequence (Q13324 whole entry): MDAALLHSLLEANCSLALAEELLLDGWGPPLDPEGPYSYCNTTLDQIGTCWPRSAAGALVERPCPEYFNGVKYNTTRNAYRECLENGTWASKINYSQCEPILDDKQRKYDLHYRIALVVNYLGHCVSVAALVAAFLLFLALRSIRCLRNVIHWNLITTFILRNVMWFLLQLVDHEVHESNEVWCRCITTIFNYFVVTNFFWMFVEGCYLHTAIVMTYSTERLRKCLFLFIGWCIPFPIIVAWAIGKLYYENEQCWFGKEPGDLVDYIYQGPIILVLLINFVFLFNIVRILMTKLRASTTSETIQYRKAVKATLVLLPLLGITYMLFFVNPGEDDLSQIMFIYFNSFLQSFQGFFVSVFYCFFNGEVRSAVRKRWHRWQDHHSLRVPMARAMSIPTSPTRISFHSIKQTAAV
T3 sequence (P24387 whole entry): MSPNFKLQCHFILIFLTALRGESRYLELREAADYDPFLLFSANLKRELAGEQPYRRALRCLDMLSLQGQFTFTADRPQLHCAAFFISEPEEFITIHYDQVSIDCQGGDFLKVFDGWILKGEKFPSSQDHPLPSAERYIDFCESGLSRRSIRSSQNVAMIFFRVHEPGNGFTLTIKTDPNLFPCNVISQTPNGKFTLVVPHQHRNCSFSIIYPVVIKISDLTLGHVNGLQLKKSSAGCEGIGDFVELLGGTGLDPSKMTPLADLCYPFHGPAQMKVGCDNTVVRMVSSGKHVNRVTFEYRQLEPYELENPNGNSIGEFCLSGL

[10] = biological target: T3, Corticotropin-releasing factor receptor 2/Corticotropin-releasing factor-binding protein; test: activators of CRF receptor 2 with binding protein – uHTS hits, confirmation (AID 602473); assay type: functional; conditions: read-out: EC50_Mean

Sequence of Cytochrome P450 2C9 (P11712 whole entry): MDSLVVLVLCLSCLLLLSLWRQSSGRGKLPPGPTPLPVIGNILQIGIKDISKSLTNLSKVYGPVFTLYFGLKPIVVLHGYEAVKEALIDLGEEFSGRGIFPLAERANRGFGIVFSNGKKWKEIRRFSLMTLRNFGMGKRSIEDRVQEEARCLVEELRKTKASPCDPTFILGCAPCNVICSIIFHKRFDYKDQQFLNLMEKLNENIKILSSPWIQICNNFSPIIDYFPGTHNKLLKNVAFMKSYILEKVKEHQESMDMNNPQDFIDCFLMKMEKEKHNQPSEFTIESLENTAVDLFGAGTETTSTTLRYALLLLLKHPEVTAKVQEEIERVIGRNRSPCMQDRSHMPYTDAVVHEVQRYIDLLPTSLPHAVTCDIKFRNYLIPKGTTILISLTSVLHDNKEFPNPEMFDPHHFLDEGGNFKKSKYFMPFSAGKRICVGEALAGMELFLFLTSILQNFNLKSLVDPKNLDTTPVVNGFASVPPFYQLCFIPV
Sequence of Cytochrome P450 2C19 (P33261 whole entry): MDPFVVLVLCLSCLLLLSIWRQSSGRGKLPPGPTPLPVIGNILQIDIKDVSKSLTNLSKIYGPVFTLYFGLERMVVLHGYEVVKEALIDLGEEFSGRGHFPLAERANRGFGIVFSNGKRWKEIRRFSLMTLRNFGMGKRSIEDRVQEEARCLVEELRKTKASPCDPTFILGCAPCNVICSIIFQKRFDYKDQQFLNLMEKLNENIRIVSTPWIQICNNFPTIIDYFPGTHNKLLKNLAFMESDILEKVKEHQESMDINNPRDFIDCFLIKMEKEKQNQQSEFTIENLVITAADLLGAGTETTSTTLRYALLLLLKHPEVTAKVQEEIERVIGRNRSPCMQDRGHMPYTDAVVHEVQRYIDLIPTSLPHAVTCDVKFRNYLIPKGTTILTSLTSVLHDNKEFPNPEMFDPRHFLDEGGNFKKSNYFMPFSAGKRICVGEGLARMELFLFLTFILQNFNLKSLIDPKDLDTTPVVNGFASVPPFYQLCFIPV

SMILES: C[N@+]1(CCC(=O)c2ccccc2)CC[C@H]2CC[C@H](C2)C1
- AC50 [1]: inconclusive

SMILES: COc1ccc(C(=O)N2CCCCC2)cc1S(=O)(=O)Nc1ccccc1
- AC50 [2]: 14.1 µM (inconclusive)

SMILES: O=C(O)c1ccc([N+](=O)[O-])c2c1C(=O)c1ccccc1C2=O
- AC50 [3]: 29 µM (active)
- EC50 [4]: 6.78 µM (active)

SMILES: COCCNc1nc(-c2ccccc2Cl)nc2ccccc12
- AC50 ([1]; read-out: AC50): 0.0316 µM (inconclusive)

SMILES: COc1ccc(-c2cc(C(F)(F)F)nc(N3CCCCCC3)n2)cc1
- CC50 [5]: 28.2 µM (active)

SMILES: O=C(Cc1cc(O)n[nH]1)N/N=C/c1cccc2ccccc12
- AC50 [3]: 4.55 µM (active)
- EC50 [4]: 0.694 µM (active)

SMILES: CN1CCN(c2ccc([N+](=O)[O-])cc2C(=O)N2CCOCC2)CC1
- AC50 [1]: inconclusive

SMILES: N#Cc1cccc(-c2cncnc2NCc2cccs2)c1
- AC50 [6]: 31.6 µM (inconclusive)
- AC50 [2]: 0.501 µM (inconclusive)

SMILES: Cc1cc(C)n(-c2ccc(Cl)c(C(=O)O)n2)n1
- AC50 ([1]; read-out: AC50): 6.31 µM (inconclusive)
- AC50 [2]: 4.47 µM (inconclusive)

SMILES: O=[N+]([O-])c1cc(-c2nnc(C34CC5CC(CC(C5)C3)C4)o2)cc([N+](=O)[O-])c1
- CC50 [5]: > 50 µM (active)
- EC50 [7]: 0.77 µM (active)
- EC50 [8]: > 60 µM (not active)

SMILES: O=C1C(Cl)=C(N2CCCCC2)C(=O)N1c1ccccc1Cl
- AC50 [3]: 4.64 µM (active)
- EC50 [4]: 2.45 µM (active)

SMILES: O=C(CCn1c(=O)[nH]c2ccsc2c1=O)Nc1ccc(F)c(F)c1
- AC50 [2]: 2.82 µM (inconclusive)

SMILES: C=CCc1cccc(CNc2nc3ccccc3n2C)c1O
- CC50 [5]: 25.9 µM (active)

SMILES: C#CCOc1ccc2c3c(c(=O)oc2c1)CCCC3
- CC50 [5]: 43.7 µM (active)

SMILES: CC1CCN(CCCn2c(=S)[nH]c3ccc(N4CCOCC4)cc3c2=O)CC1
- AC50 [1]: inconclusive
- AC50 [6]: 22.4 µM (inconclusive)
- AC50 [2]: 20 µM (inconclusive)

SMILES: CC(=O)c1ccccc1OCCCOc1cccc2cccnc12
- CC50 [5]: 21.4 µM (active)

SMILES: Cc1n[nH]c2c1C1(CCOCC1)C(C#N)=C(N)O2
- AC50 [3]: 3.57 µM (active)
- EC50 [4]: 2.83 µM (active)

SMILES: CC(C)C(NS(=O)(=O)c1cccs1)C(=O)Nc1nc(C(C)(C)C)cs1 (stereo not drawn)
- CC50 [5]: 13.5 µM (active)

SMILES: CC(C)(C)c1ccccc1OCCN1CCCC1
- EC50 [7]: 1.35 µM (active)
- EC50 [8]: > 60 µM (not active)
- AC50 ([1]; read-out: AC50): 35.5 µM (inconclusive)

SMILES: COc1ccc(-c2cc(C)no2)cc1S(=O)(=O)N1CCN(C(=O)c2ccco2)CC1
- IC50 [9]: > 47.1 µM (inactive)
- EC50 [10]: > 53 µM (inactive)

SMILES: NC(=O)[C@H]1CC2(CC(c3cccc(NC(=O)c4ccccc4)c3)=NO2)CN1C(=O)[C@H]1CCC(=O)N1 (stereo partly drawn)
- AC50 [1]: inconclusive

SMILES: Cc1cc(N)n2ncc(-c3cccc(Br)c3)c2n1
- CC50 [5]: > 50 µM (active)

SMILES: CN(C)c1ccc(-c2nc(NCCc3cnc[nH]3)c3ccccc3n2)cc1
- AC50 [2]: 0.794 µM (inconclusive)

SMILES: CC(C)(C)C(=O)Nc1ccc(C(=O)OC2CCCCC2)cc1
- CC50 [5]: 37.3 µM (active)

SMILES: CC(C)Cn1cnc2c(SCc3ccccc3)nc(N)nc21
- IC50 [9]: > 47.1 µM (inactive)
- EC50 [10]: > 53 µM (inactive)

SMILES: CC1=C(C)CC2(SC1)C(=O)N(c1ccccc1)N=C2N (stereo not drawn)
- AC50 [3]: 10.3 µM (active)
- EC50 [4]: 3.4 µM (active)

SMILES: O=C1Nc2ccccc2/C1=N/NS(=O)(=O)c1ccc(C(=O)O)cc1
- AC50 [1]: inconclusive

SMILES: Cc1nc2cnc(Oc3cccc(Cl)c3)nc2n(Cc2ccc(F)cc2)c1=O
- AC50 ([1]; read-out: AC50): 31.6 µM (inconclusive)

SMILES: COc1ccccc1OCC(=O)NCC1CCCN(C(=O)c2ccccc2C(C)=O)C1 (stereo not drawn)
- IC50 [9]: > 47.1 µM (inactive)
- EC50 [10]: > 53 µM (inactive)

SMILES: Cc1cc(C)c2nc(NC(=O)c3ccc4c(=O)n5c(nc4c3)CCCCC5)sc2c1
- IC50 [9]: > 47.1 µM (inactive)
- EC50 [10]: > 53 µM (inactive)

SMILES: O=C(CNS(=O)(=O)c1cccs1)NCCc1ccc(Cl)cc1
- IC50 [9]: > 47.1 µM (inactive)
- EC50 [10]: > 53 µM (inactive)

SMILES: COc1cccc(C(=O)NCCN2CCOCC2)c1
- AC50 ([1]; read-out: AC50): 20 µM (inconclusive)
- AC50 [2]: 3.55 µM (inconclusive)

SMILES: COC1=C(C)C(=O)c2c(c(COC(N)=O)c3n2C[C@@H]2[C@@H]3N2C)C1=O (stereo partly drawn)
- AC50 ([1]; read-out: AC50): 0.794 µM (inconclusive)

SMILES: Cc1cccc(CNc2ncnc3ccc(-c4ccccc4C#N)cc23)c1
- AC50 [2]: 0.501 µM (inconclusive)

SMILES: Cc1nc(N2CCOCC2)c(C#N)c(C)c1Br
- CC50 [5]: 30.6 µM (active)

SMILES: O=P(O)(COc1ccccc1)COc1ccccc1
- AC50 ([1]; read-out: AC50): 28.2 µM (inconclusive)
- AC50 [2]: 14.1 µM (inconclusive)

SMILES: Cc1ccccc1-c1nc(CN(C)C(C)c2ccon2)c(C)o1 (stereo not drawn)
- AC50 [3]: 3.11 µM (active)
- EC50 [4]: 1.15 µM (active)
